Reference: patent US20060110789A1, “Methods to mediate polyketide synthase module effectiveness” (priority 2002, published 2006)

Key:
module 2+TE ((5)M2+TE) = target: T1, module 2+TE ((5)M2+TE) (Saccharopolyspora erythraea, UniProt Q03131+Q03133); settings: NAC thioester substrate, shown earlier; cited from earlier work
T1 construct: The protein was, in each case, a single module of the DEBS PKS fused to the thioesterase (TE) termination region of module 6; first 39 amino acids of module 5 (N-ERL); made in house; host or cells: E. coli (BL21(DE3) with sfp)

[1] = test system: (5)M2+TE, (5)M5+TE, and (5)M6+TE; settings: Wu et al. 2000; cited from earlier work
(5)M3+TE and (3)M3+TE = settings: either module 3+TE derivative, previously shown; cited from earlier work
module 5+TE ((5)M5+TE) = settings: NAC thioester substrate at saturating concentration, shown earlier; cited from earlier work
module 6+TE ((5)M6+TE) = target: T2, module 6+TE ((5)M6+TE) (Saccharopolyspora erythraea, UniProt Q03133, DEL53-1503); settings: NAC thioester substrate, shown earlier; cited from earlier work
T2 construct: The protein was, in each case, a single module of the DEBS PKS fused to the thioesterase (TE) termination region of module 6; first 39 amino acids of module 5 (N-ERL); made in house; host or cells: E. coli (BL21(DE3) with sfp)

[2] = test system: DEBS module 5 ((5)M5+TE or (3)M5+TE); test: Substrate transfer and elongation assay, acceptor DEBS module 5; type: biochemical
Experimental: (§1) Substrate transfer and elongation assays. Qualitative assays were performed with a diketide-ACP or diketide-PCP substrate either taken directly from the so phosphopantetheinlyation reaction or after further purification of the substrate. These assays were performed with 20 μM diketide-ACP/PCP substrate for 2 hours in the following reaction conditions: 1 μM acceptor module, 0.5 mM ^14C-methylmalonyl CoA, 4 mM NADPH in buffer C, 30° C. After quenching by addition of 250 μL EtOAc and vortexing, the products were extracted with 2×250 μL EtOAc, resolved on a silica gel TLC plate, and visualized on a Packard InstantImager.
(§2) The kinetics of substrate transfer at the module 2-module 3 interface followed by elongation and product release were examined as a function of the k60 μM and kcat/KM values of the overall reaction. The k60 μm values reported here represent the apparent overall rate of product formation at an initial substrate concentration of 60 μM. In many cases, the k60μm values approximate the maximal overall turnover rates, as determined by back calculating the KM value for the reactions. True saturation kinetics were not practical because of the technical limitations (e.g., solubility) and limited supply associated with high molecular weight substrates such as diketide-ACP and diketide-PCP. kcat/KM values were determined by competitive assay of the substrate of interest against a substrate with a known kcat/KM value, as previously described (Wu, et al., (2001) J. Am. Chem. Soc. 123, 6465-6474). […]
(§3) These reactions were quenched by the addition of 80 μL 12.5% SDS to 2 μL reaction mixture and immediate vortexing. […] After removing the organic solvents in vacuo, the residual products were then spotted onto a TLC plate (Baker-flex 250 uM silica gel), resolved in 60% EtOAc/40% hexanes, and the radioactive spots were visualized and quantified on a Packard InstantImager. […]

(5)M2+TE = target: T3, (5)M2+TE (Saccharopolyspora erythraea, UniProt Q03131+Q03133); test: Substrate transfer and elongation assay, acceptor DEBS module 2; type: biochemical
T3 construct: The protein was, in each case, a single module of the DEBS PKS fused to the thioesterase (TE) termination region of module 6; first 39 amino acids of module 5 (N-ERL); made in house; host or cells: E. coli (BL21(DE3) with sfp)
Experimental: as §1, §2, §3

[3] = test system: DEBS module 3 ((3)M3+TE or (5)M3+TE); test: Substrate transfer and elongation assay, acceptor DEBS module 3; type: biochemical; settings: 20 μM substrate; FIG. 27 A: diketide-ACP2(2)+(3)M3+TE; B: diketide-ACP2(4)+(3)M3+TE; C: diketide-ACP4(4)+(5)M3+TE; D: diketide-ACP4(4)+(3)M3+TE
Experimental: as §1
as §2, with “The k60 μm values reported here represent the apparent overall rate of product formation at an initial substrate concentration of 60 μM.” left out

(5)M6+TE = target: T4, (5)M6+TE (Saccharopolyspora erythraea, UniProt Q03133, DEL53-1503); test: Substrate transfer and elongation assay, acceptor DEBS module 6; type: biochemical
T4 construct: The protein was, in each case, a single module of the DEBS PKS fused to the thioesterase (TE) termination region of module 6; first 39 amino acids of module 5 (N-ERL); made in house; host or cells: E. coli (BL21(DE3) with sfp)
Experimental: as §1, §2, §3

[4] = versus diketide-ACP4(4), stated jointly for modules 2 and 6

| Compound | kcat (module 2+TE ((5)M2+TE)) | qualitative turnover of NAC thioesters [1] | qualitative incorporation of NAC thioesters ((5)M3+TE and (3)M3+TE) | kcat (elongation rate constant) (module 5+TE ((5)M5+TE)) | kcat (module 6+TE ((5)M6+TE)) | qualitative transfer of diketide to module 5 (triketide lactone formation) ([2]; 20 μM substrate, FIG. 28 A: diketide-ACP4(4)+(5)M5+TE, B: diketide-ACP4(4)+(3)M5+TE, C: diketide-ACP2(4)+(5)M5+TE, D: diketide-ACP2(2)+(5)M5+TE) | k60μm ([2]; acceptor (3)M5+TE, FIG. 29 B) | k60μm ([2]; acceptor (5)M5+TE, FIG. 29 A) | qualitative transfer of diketide to (5)M2+TE ((5)M2+TE; 20 μM substrate, 2 hours) | drop of k60 μM when linker interactions are eliminated ((5)M2+TE; [4]) | drop of kcat/KM when linker interactions are eliminated ((5)M2+TE; [4]) | qualitative transfer of diketide to module 3 (triketide lactone formation) [3] | qualitative transfer of diketide to (5)M6+TE ((5)M6+TE; 20 μM substrate, 2 hours) | drop of k60 μM when linker interactions are eliminated ((5)M6+TE; [4]) | drop of kcat/KM when linker interactions are eliminated ((5)M6+TE; [4]) |
| --- | --- | --- | --- | --- | --- | --- | --- | --- | --- | --- | --- | --- | --- | --- | --- |
| CCC(O)C(C)C(=O)SCCNC(C)=O (stereo not drawn) [2a] | 0.0767 s⁻¹ | substrates for the three modules | readily incorporated and elongated | 0.00417 s⁻¹ | 0.283 s⁻¹ |  |  |  |  |  |  |  |  |  |  |
| diketide-ACP4(Ø): diketide on isolated ACP4 domain without linker region |  |  |  |  |  | Formation of the expected triketide lactone was observed | 0.27 min⁻¹ | 0.49 min⁻¹ | observed | approximately 10 fold | 70-300 fold | not able to efficiently transfer substrates | observed | approximately 10 fold | 70-300 fold |
